Where a name gives a salt, the structure may show the parent alone.

For orientation: IC50 means the concentration at which inhibition is half-maximal. Higher therefore signals weaker potency in that assay.

The assay has as its target T1, estrogen receptor (ER) (Homo sapiens, UniProt P03372).
T1 construct: expressed in transfected cells; host or cells: CHO cells (ribosome-free cytosol)
T1 sequence (P03372 1-595): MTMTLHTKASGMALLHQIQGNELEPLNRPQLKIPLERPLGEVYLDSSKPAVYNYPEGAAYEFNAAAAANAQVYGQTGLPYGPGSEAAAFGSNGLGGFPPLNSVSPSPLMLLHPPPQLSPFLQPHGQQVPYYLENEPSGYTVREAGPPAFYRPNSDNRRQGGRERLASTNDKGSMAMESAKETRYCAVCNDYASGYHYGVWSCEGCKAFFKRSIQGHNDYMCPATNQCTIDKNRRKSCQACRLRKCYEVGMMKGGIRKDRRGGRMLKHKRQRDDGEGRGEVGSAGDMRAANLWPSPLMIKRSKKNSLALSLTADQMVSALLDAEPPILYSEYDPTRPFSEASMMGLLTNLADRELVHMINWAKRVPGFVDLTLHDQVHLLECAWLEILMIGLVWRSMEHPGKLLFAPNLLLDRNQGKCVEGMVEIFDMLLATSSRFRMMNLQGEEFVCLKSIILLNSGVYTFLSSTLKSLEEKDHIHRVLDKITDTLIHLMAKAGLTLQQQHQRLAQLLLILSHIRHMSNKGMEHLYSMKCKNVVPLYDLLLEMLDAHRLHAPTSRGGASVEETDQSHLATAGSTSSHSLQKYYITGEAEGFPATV
The experiment in a line: Receptor Binding Assay (competition with [3H]17β-estradiol). The settings on record: cytosol of CHO cells overexpressing the estrogen receptor; 0.8 nM [3H]17β-estradiol; 12 competitor concentrations; room temperature, 2.5 h.

Compound `CC1(C)c2cc(O)ccc2N(Cc2ccc(OCCN3CCCCC3)cc2)C1c1ccccc1` (stereo not shown) [Example No. 4, 3,3-dimethyl-2-phenyl-1-[4-(2-piperidin-1-yl-ethoxy)-benzyl]-2,3-dihydro-1H-indol-5-ol (HCl)] gave an IC50 of 0.8 µM.

Take `CC1(C)c2cc(O)ccc2N(Cc2ccc(OCCN3CCCCCC3)cc2)C1(c1ccccc1)c1ccc(O)cc1` (stereo not shown) [Example No. 11, 1-[4-(2-Azepan-1-yl-ethoxy)-benzyl]-2-(4-hydroxy-phenyl)-3,3-dimethyl-2-Phenyl-2,3-dihydro-1H-indol-5-ol]: the IC50 was found to be 0.35 µM.

`CC1(C)c2cc(O)ccc2N(Cc2ccc(OCCN3CCCCCC3)cc2)C1c1ccccc1` (stereo not shown) [Example No. 6, 1-[4-(2-Azepan-1-yl-ethoxy)-benzyl]-3,3-dimethyl-2-phenyl-2,3-dihydro-1H-indol-5-ol] returned an IC50 of 1 µM.

`CC1(C)c2cc(O)ccc2N(Cc2ccc(OCCN3CCCCC3)cc2)C1c1ccc(O)cc1` (stereo not shown) [Example No. 9, 2-(4-Hydroxy-phenyl)-3,3-dimethyl-1-[4-(2-piperidin-1-yl-ethoxy)-benzyl]-2,3-dihydro-1H-indol-5-ol] showed an IC50 of 0.31 µM.

(Values after patent EP1159267B1, “N-SUBSTITUTED INDOLINES AS ESTROGENIC AGENTS” (Wyeth, priority 1999, dated 2000).)
